Active and inactive are the calls of the source. No cut-off for these calls is given here.
How the values were obtained:
[1] = system: Lactuca sativa; assay: Phytotoxicity against Lactuca sativa (lettuce) assessed as reduction of seed germination at 10^-5 M measured daily for 5 days relative to control; type: functional; parameters: scale not given: the % may be the effect or the level left
[2] = system: Lactuca sativa; assay: Phytotoxicity against Lactuca sativa (lettuce) assessed as reduction of root elongation at 10^-4 M measured daily for 5 days relative to control; type: functional
[3] = system: Lactuca sativa; assay: Phytotoxicity against Lactuca sativa (lettuce) assessed as reduction of shoot elongation at 10^-7 M measured daily for 5 days relative to control; type: functional, organism-based
[4] = system: Lactuca sativa; assay: Phytotoxicity against Lactuca sativa (lettuce) assessed as reduction of seed germination measured daily for 5 days relative to control; type: functional, organism-based
[5] = system: Lactuca sativa; assay: Stimulation of root elongation in Lactuca sativa (lettuce) at 10^-7 M measured daily for 5 days relative to control; type: organism-based; conditions: in vivo, 120 h, 0.1 µM

| SMILES | Activity [1] [%] | Activity [2] | Activity [3] | Activity [4] | Activity [5] [%] |
| --- | --- | --- | --- | --- | --- |
| COC(=O)CCc1ccc(Oc2ccc(CCC(=O)OC)cc2OC)cc1 [APTENIOL C] | 25 | inactive | inactive | Dose-dependent effect | – |
| COc1cc(CCC(=O)O)cc(OC)c1Oc1c(OC)cc(CCC(=O)O)cc1OC [APTENIOL E] | 25 | 20% | – | Dose-dependent effect | 20 |
| COc1cc(CCC(=O)O)ccc1Oc1c(OC)cc(CCC(=O)O)cc1OC [APTENIOL D] | 25 | 20% | – | Dose-dependent effect | – |
| COc1cc(CCC(=O)O)ccc1Oc1ccc(CCC(=O)O)cc1 [APTENIOL B] | 25 | 20% | – | Dose-dependent effect | 20 |
| COc1cc(CCC(=O)O)ccc1Oc1ccccc1CCC(=O)O [APTENIOL F] | 25 | 20% | inactive | Dose-dependent effect | – |
| O=C(O)CCc1ccc(Oc2ccc(CCC(=O)O)cc2)cc1 [APTENIOL A] | 25 | 40% | inactive | Dose-dependent effect | – |
